How the values were obtained:
[1] = Drug uptake in C57/BL6 mouse kidney at 30 mg/kg, po after 24 hrs; assay type: ADME, organism-based; set-up: dose 30 mg/kg, route oral; conditions: read-out: Drug uptake
[2] = Volume of distribution at steady state in Sprague-Dawley rat at 10 mg/kg, po and 2 mg/kg, iv; assay type: ADME, organism-based; conditions: in vivo, read-out: Vdss
[3] = Drug uptake in C57/BL6 mouse left epididymal fat at 30 mg/kg, po after 24 hrs; assay type: ADME, organism-based, Epididymal fat pad; set-up: dose 30 mg/kg, route oral; conditions: male, read-out: Drug uptake
[4] = Drug uptake in C57/BL6 mouse heart at 30 mg/kg, po after 24 hrs; assay type: ADME, organism-based; set-up: dose 30 mg/kg, route oral; conditions: read-out: Drug uptake
[5] = Oral bioavailability in Sprague-Dawley rat plasma at 10 mg/kg; assay type: ADME, organism-based
[6] = Drug uptake in C57/BL6 mouse left median liver lobe at 30 mg/kg, po after 24 hrs; assay type: ADME, organism-based; set-up: dose 30 mg/kg, route oral; conditions: read-out: Drug uptake
[7] = Drug uptake in C57/BL6 mouse heart at 30 mg/kg, po after 6 hrs; assay type: ADME, organism-based; set-up: dose 30 mg/kg, route oral; conditions: read-out: Drug uptake
[8] = Volume of distribution at steady state in C57/BL6 mouse at 10 mg/kg, po and 2 mg/kg, iv; assay type: ADME, organism-based; conditions: in vivo, read-out: Vdss
[9] = Ratio of drug uptake in left median liver lobe to harderian gland in C57/BL6 mouse at 10 mg/kg, po after 6 hrs; assay type: ADME, organism-based; set-up: dose 10 mg/kg, route oral; conditions: in vivo
[10] = biological target: T1, Acyl-CoA desaturase 1 (Rattus norvegicus, UniProt P07308); assay: Inhibition of SCD1 in Sprague-Dawley rat hepatocytes assessed as conversion of [14C]oleic acid formation by HPLC analysis; assay type: cell-based, Hepatocyte
T1 sequence (P07308 whole entry): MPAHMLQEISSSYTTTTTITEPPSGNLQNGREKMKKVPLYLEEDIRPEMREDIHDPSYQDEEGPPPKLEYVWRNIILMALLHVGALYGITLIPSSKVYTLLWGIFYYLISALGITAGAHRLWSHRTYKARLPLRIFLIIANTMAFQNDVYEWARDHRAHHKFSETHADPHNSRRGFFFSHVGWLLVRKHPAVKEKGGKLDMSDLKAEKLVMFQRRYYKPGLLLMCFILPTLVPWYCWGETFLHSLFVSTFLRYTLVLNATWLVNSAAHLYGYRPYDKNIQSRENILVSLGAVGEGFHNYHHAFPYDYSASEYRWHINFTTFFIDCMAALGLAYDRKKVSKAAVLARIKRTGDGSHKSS

[11] = Plasma concentration in C57/BL6 mouse at 30 mg/kg, po after 6 hrs; assay type: ADME, organism-based; set-up: dose 30 mg/kg, route oral
[12] = biological target: T2, Stearoyl-CoA desaturase (Homo sapiens, UniProt O00767); assay: Inhibition of human SCD1 expressed in human HepG2 cells assessed as conversion of [14C]stearic acid to [14C]oleic acid; assay type: cell-based
T2 sequence (O00767 whole entry): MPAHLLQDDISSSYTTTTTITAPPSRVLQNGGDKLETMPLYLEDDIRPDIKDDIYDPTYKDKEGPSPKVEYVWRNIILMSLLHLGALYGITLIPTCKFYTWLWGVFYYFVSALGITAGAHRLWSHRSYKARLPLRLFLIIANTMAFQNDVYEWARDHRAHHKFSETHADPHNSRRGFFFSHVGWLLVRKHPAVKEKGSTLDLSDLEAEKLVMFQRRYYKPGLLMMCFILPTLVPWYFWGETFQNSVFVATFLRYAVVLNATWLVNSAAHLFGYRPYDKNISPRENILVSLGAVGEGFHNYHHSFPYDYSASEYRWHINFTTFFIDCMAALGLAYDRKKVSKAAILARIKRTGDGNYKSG

[13] = system: Mus musculus; assay: Acute antidiabetic activity in high fat diet fed C57/BL6 mouse eDIO model assessed as increase in glucose clearance at 30 mg/kg, po administered 1 hr prior to glucose challenge by oGTT assay; assay type: functional
[14] = Half life in C57/BL6 mouse at 10 mg/kg, po and 2 mg/kg, iv; assay type: ADME, organism-based; conditions: in vivo
[15] = system: Nucleic Acid; assay: Ratio of drug uptake in left median liver lobe to harderian gland in C57/BL6 mouse at 30 mg/kg, po after 2 hrs; assay type: ADME, organism-based; set-up: dose 30 mg/kg, route oral; conditions: in vivo
[16] = system: Mus musculus; assay: Inhibition of SCD activity in high sucrose/fat free diet fed C57/BL6 mouse liver assessed as reduction in conversion of [14C]stearic acid to [14C]oleic acid at 30 mg/kg, po; assay type: functional
[17] = Plasma concentration in C57/BL6 mouse at 30 mg/kg, po after 24 hrs; assay type: ADME, organism-based; set-up: dose 30 mg/kg, route oral
[18] = Drug uptake in C57/BL6 mouse kidney at 30 mg/kg, po after 2 hrs; assay type: ADME, organism-based; set-up: dose 30 mg/kg, route oral; conditions: read-out: Drug uptake
[19] = Drug uptake in C57/BL6 mouse skin at 30 mg/kg, po after 24 hrs; assay type: ADME, organism-based, Zone of skin; set-up: dose 30 mg/kg, route oral; conditions: read-out: Drug uptake
[20] = biological target: T3, Stearoyl-CoA desaturase 5 (Homo sapiens, UniProt Q86SK9); assay: Inhibition of human SCD5
T3 sequence (Q86SK9 whole entry): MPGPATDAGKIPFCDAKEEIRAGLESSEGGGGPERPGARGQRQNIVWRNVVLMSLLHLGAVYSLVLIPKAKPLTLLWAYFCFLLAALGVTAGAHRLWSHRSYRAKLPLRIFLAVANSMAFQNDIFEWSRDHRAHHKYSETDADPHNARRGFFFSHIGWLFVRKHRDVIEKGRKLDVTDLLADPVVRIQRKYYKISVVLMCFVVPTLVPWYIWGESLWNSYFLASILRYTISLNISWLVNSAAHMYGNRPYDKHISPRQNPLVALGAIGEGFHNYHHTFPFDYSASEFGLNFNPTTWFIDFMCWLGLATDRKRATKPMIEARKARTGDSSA

[21] = Drug uptake in high fat diet fed C57/BL6 mouse eDIO model whole blood at 30 mg/kg, po after 3 hrs; assay type: ADME, organism-based; set-up: dose 30 mg/kg, route oral; conditions: read-out: Drug uptake
[22] = Drug uptake in high sucrose/fat free diet fed C57/BL6 mouse liver at 10 mg/kg, po after 3 hrs; assay type: ADME, organism-based; set-up: dose 10 mg/kg, route oral; conditions: read-out: Drug uptake
[23] = Drug uptake in C57/BL6 mouse skin at 30 mg/kg, po after 6 hrs; assay type: ADME, organism-based, Zone of skin; set-up: dose 30 mg/kg, route oral; conditions: read-out: Drug uptake
[24] = biological target: T2, Stearoyl-CoA desaturase; assay: Inhibition of human SCD1

Compound: O=C(O)c1cncc(-c2ccc(N3CCC(Oc4cc(F)ccc4Br)CC3)nn2)c1
- concentration at 24 h [1]: 29 nM
- Vd [2]: 0.41 L/kg
- concentration at 24 h [3]: 45 nM
- concentration at 24 h [4]: 32 nM
- bioavailability [5]: 43%
- concentration at 24 h [6]: 32 nM
- concentration at 6 h [7]: 333 nM
- Vd [8]: 1.12 L/kg
- Ratio [9]: 15
- IC50 [10]: 175 nM
- concentration at 6 h [11]: 626 nM
- IC50 [12]: 6030 nM
- Activity [13]: 59%
- half-life [14]: 24 min
- Ratio [15]: 11
- inhibition in vivo at 30 mg/kg [16]: 74%
- concentration at 24 h [17]: 5 nM
- concentration at 2 h [18]: 6140 nM
- concentration at 24 h [19]: 12 nM
- IC50 [20]: 4 nM
- concentration at 3 h [21]: 320 nM
- concentration at 3 h [22]: 2970 nM
- concentration at 6 h [23]: 55 nM
- IC50 [24]: 7 nM
